# Laboratory results as given in publication PMC5218480 (PLoS ONE, 2017).
# System: MV-4-11 cells
# Assay: Gene expression microarray analysis (Affymetrix PrimeView) and GSEA
# Format: cell-based, human
# Parameters: RFU PODN (11730768_x_at) / Fold change /veh PODN (11730768_x_at) / RFU LINC00158 (11744669_a_at) / Fold change /veh LINC00158 (11744669_a_at) / RFU DUSP10 (11751237_a_at) / Fold change /veh DUSP10 (11751237_a_at) / RFU ID3 (11757404_x_at) / Fold change /veh ID3 (11757404_x_at) / RFU PLEKHG5 (11737974_s_at) / Fold change /veh PLEKHG5 (11737974_s_at) / RFU LRRC4B (11730491_at) / Fold change /veh LRRC4B (11730491_at) / RFU GIMAP4 (11747438_a_at) / Fold change /veh GIMAP4 (11747438_a_at) / RFU KRT8 (11758183_x_at) / Fold change /veh KRT8 (11758183_x_at) / RFU CNN1 (11734310_a_at) / Fold change /veh CNN1 (11734310_a_at) / RFU VPS37D (11726825_at) / Fold change /veh VPS37D (11726825_at) / RFU C10orf10 (11716522_x_at) / Fold change /veh C10orf10 (11716522_x_at) / RFU KIR2DL2 /// KIR2DL4 /// KIR2DL5A /// KIR2DL5B /// KIR2DS1 /// KIR2DS2 /// KIR2DS3 /// KIR2DS4 /// KIR3DL3 /// KIR3DL3 /// KIR3DS1 (11738374_at) / Fold change /veh KIR2DL2 /// KIR2DL4 /// KIR2DL5A /// KIR2DL5B /// KIR2DS1 /// KIR2DS2 /// KIR2DS3 /// KIR2DS4 /// KIR3DL3 /// KIR3DL3 /// KIR3DS1 (11738374_at) / RFU C1QL1 (11718748_at) / Fold change /veh C1QL1 (11718748_at) / RFU TMPRSS4 (11747572_a_at) / Fold change /veh TMPRSS4 (11747572_a_at) / RFU HAMP (11756126_x_at) / Fold change /veh HAMP (11756126_x_at) / RFU RNFT2 (11725882_a_at) / Fold change /veh RNFT2 (11725882_a_at) / RFU NR4A2 (11747474_a_at) / Fold change /veh NR4A2 (11747474_a_at) / RFU ABCC12 (11746883_a_at) / Fold change /veh ABCC12 (11746883_a_at) / RFU TMEM136 (11760407_x_at) / Fold change /veh TMEM136 (11760407_x_at) / RFU CLDN22 /// WWC2 (11732394_at) / Fold change /veh CLDN22 /// WWC2 (11732394_at) / RFU HLA-DPB1 (11760878_x_at) / Fold change /veh HLA-DPB1 (11760878_x_at) / RFU SPINT1 (11716480_a_at) / Fold change /veh SPINT1 (11716480_a_at) / RFU GAP43 (11754022_s_at) / Fold change /veh GAP43 (11754022_s_at) / RFU A4GNT (11735810_at) / Fold change /veh A4GNT (11735810_at) / RFU PRB3 (11715151_x_at) / Fold change /veh PRB3 (11715151_x_at) / RFU TUBB4B (11761932_at) / Fold change /veh TUBB4B (11761932_at) / RFU CAPN14 (11732068_a_at) / Fold change /veh CAPN14 (11732068_a_at) / RFU TMCC2 (11721928_a_at) / Fold change /veh TMCC2 (11721928_a_at) / RFU IRGQ (11745062_a_at) / Fold change /veh IRGQ (11745062_a_at) / RFU FAM174B (11720279_a_at) / Fold change /veh FAM174B (11720279_a_at) / RFU TMPRSS4 (11748680_a_at) / Fold change /veh TMPRSS4 (11748680_a_at) / RFU FAM212B (11763350_a_at) / Fold change /veh FAM212B (11763350_a_at) / RFU PLEKHG5 (11743358_a_at) / Fold change /veh PLEKHG5 (11743358_a_at) / RFU ZSCAN30 (11745921_a_at) / Fold change /veh ZSCAN30 (11745921_a_at) / RFU CMKLR1 (11741424_a_at) / Fold change /veh CMKLR1 (11741424_a_at) / RFU LOC101060620 /// MAPK8IP1 (11723275_at) / Fold change /veh LOC101060620 /// MAPK8IP1 (11723275_at) / RFU SPTSSB (11747773_x_at) / Fold change /veh SPTSSB (11747773_x_at) / RFU PRSS12 (11739890_at) / Fold change /veh PRSS12 (11739890_at) / RFU BIN1 (11741810_x_at) / Fold change /veh BIN1 (11741810_x_at) / RFU WNT11 (11732464_a_at) / Fold change /veh WNT11 (11732464_a_at) / RFU C10orf10 (11716521_a_at) / Fold change /veh C10orf10 (11716521_a_at) / RFU C5orf56 (11738089_at) / Fold change /veh C5orf56 (11738089_at) / RFU CYB561 (11721691_x_at) / Fold change /veh CYB561 (11721691_x_at) / RFU ANKRD19P (11752326_a_at) / Fold change /veh ANKRD19P (11752326_a_at) / RFU OR2T12 /// OR2T33 /// OR2T8 (11738714_s_at) / Fold change /veh OR2T12 /// OR2T33 /// OR2T8 (11738714_s_at) / RFU VCAN (11748164_a_at) / Fold change /veh VCAN (11748164_a_at) / RFU JSRP1 (11732532_at) / Fold change /veh JSRP1 (11732532_at) / RFU KRTAP10-11 (11738290_x_at) / Fold change /veh KRTAP10-11 (11738290_x_at) / RFU MYO3A (11730013_a_at) / Fold change /veh MYO3A (11730013_a_at) / RFU EBF3 (11725865_a_at) / Fold change /veh EBF3 (11725865_a_at) / RFU CAMK2N1 (11719241_x_at) / Fold change /veh CAMK2N1 (11719241_x_at) / RFU C5orf56 (11738088_a_at) / Fold change /veh C5orf56 (11738088_a_at) / RFU OLFML3 (11715873_a_at) / Fold change /veh OLFML3 (11715873_a_at) / RFU LOC100653217 /// NTM (11731650_a_at) / Fold change /veh LOC100653217 /// NTM (11731650_a_at) / RFU MAPK11 (11762145_a_at) / Fold change /veh MAPK11 (11762145_a_at) / RFU FIZ1 (11724087_x_at) / Fold change /veh FIZ1 (11724087_x_at) / RFU OASL (11726364_x_at) / Fold change /veh OASL (11726364_x_at) / RFU SOX15 (11748057_x_at) / Fold change /veh SOX15 (11748057_x_at) / RFU CD79A (11719716_a_at) / Fold change /veh CD79A (11719716_a_at) / RFU HIST1H1D (11736915_at) / Fold change /veh HIST1H1D (11736915_at) / RFU CASKIN2 (11723855_a_at) / Fold change /veh CASKIN2 (11723855_a_at) / RFU LOC730098 (11760151_x_at) / Fold change /veh LOC730098 (11760151_x_at) / RFU OR4N2 (11742367_at) / Fold change /veh OR4N2 (11742367_at) / RFU PRRT2 (11749266_a_at) / Fold change /veh PRRT2 (11749266_a_at) / RFU SNX32 (11753110_a_at) / Fold change /veh SNX32 (11753110_a_at) / RFU CDHR5 (11726645_a_at) / Fold change /veh CDHR5 (11726645_a_at) / RFU RCAN1 (11760418_a_at) / Fold change /veh RCAN1 (11760418_a_at) / RFU FAM167A (11723789_a_at) / Fold change /veh FAM167A (11723789_a_at) / RFU FAM26E (11764081_at) / Fold change /veh FAM26E (11764081_at) / RFU ISYNA1 (11749810_s_at) / Fold change /veh ISYNA1 (11749810_s_at) / RFU ACY1 (11761880_at) / Fold change /veh ACY1 (11761880_at) / RFU 11764098_at / Fold change /veh 11764098_at / RFU SAMD14 (11745864_x_at) / Fold change /veh SAMD14 (11745864_x_at) / RFU NPB (11741838_a_at) / Fold change /veh NPB (11741838_a_at) / RFU TMPRSS6 (11731388_a_at) / Fold change /veh TMPRSS6 (11731388_a_at) / RFU KRTAP10-2 (11738614_at) / Fold change /veh KRTAP10-2 (11738614_at) / RFU ARHGAP8 /// PRR5-ARHGAP8 (11727945_x_at) / Fold change /veh ARHGAP8 /// PRR5-ARHGAP8 (11727945_x_at) / RFU KRTAP5-7 /// NADSYN1 (11734609_at) / Fold change /veh KRTAP5-7 /// NADSYN1 (11734609_at) / RFU RASL12 (11751679_a_at) / Fold change /veh RASL12 (11751679_a_at) / RFU CDKN2B (11736163_a_at) / Fold change /veh CDKN2B (11736163_a_at) / RFU PRF1 (11729649_at) / Fold change /veh PRF1 (11729649_at) / RFU, ZNF638 /// ZNF638-IT1 / Fold change vs veh, ZNF638 /// ZNF638-IT1 / RFU, PANK3 / Fold change vs veh, PANK3 / RFU, SH3YL1 / Fold change vs veh, SH3YL1 / RFU, ZEB2 / Fold change vs veh, ZEB2 / RFU, NRIP1 / Fold change vs veh, NRIP1 / RFU, PTTG1IP / Fold change vs veh, PTTG1IP / RFU, CAPN2 / Fold change vs veh, CAPN2 / RFU, MED14 / Fold change vs veh, MED14 / RFU, SNORA58 / Fold change vs veh, SNORA58 / RFU, C1orf63 / Fold change vs veh, C1orf63 / RFU, LRRFIP1 / Fold change vs veh, LRRFIP1 / RFU, NDUFAF7 / Fold change vs veh, NDUFAF7 / RFU, SLC12A2 / Fold change vs veh, SLC12A2 / RFU, IBTK / Fold change vs veh, IBTK / RFU, ESF1 / Fold change vs veh, ESF1 / Fold change vs veh, TMEM50B / RFU, TAOK1 / Fold change vs veh, TAOK1 / RFU, ACBD3 / Fold change vs veh, ACBD3 / RFU, TMA16 / Fold change vs veh, TMA16 / RFU, RWDD3 / Fold change vs veh, RWDD3 / RFU, BCAT1 / Fold change vs veh, BCAT1 / RFU, EDEM3 / Fold change vs veh, EDEM3 / RFU, TMEM33 / Fold change vs veh, TMEM33 / RFU, WDR75 / Fold change vs veh, WDR75 / RFU, AHCTF1 / Fold change vs veh, AHCTF1 / RFU, TFRC / Fold change vs veh, TFRC / RFU, ZDHHC17 / Fold change vs veh, ZDHHC17 / RFU, NOM1 / Fold change vs veh, NOM1 / RFU, ARL8B / Fold change vs veh, ARL8B / RFU, ZBTB11 / Fold change vs veh, ZBTB11 / RFU, TAMM41 / Fold change vs veh, TAMM41 / RFU, KIAA1704 /// LOC100996395 / Fold change vs veh, KIAA1704 /// LOC100996395 / RFU, ING1 / Fold change vs veh, ING1 / RFU, TRMT61B / Fold change vs veh, TRMT61B / RFU, FUBP3 / Fold change vs veh, FUBP3 / RFU, TP53 / Fold change vs veh, TP53 / RFU, TNKS2 / Fold change vs veh, TNKS2 / RFU, ZFP14 / Fold change vs veh, ZFP14 / RFU, ACTR2 / Fold change vs veh, ACTR2 / RFU, PPP3R1 / Fold change vs veh, PPP3R1 / RFU, PIK3R1 / Fold change vs veh, PIK3R1 / RFU, HNRNPA1 / Fold change vs veh, HNRNPA1 / RFU, RNF170 / Fold change vs veh, RNF170 / RFU, ZNF28 / Fold change vs veh, ZNF28 / RFU, RNGTT / Fold change vs veh, RNGTT / RFU, OGT / Fold change vs veh, OGT / RFU, BRD1 / Fold change vs veh, BRD1 / RFU, MARS / Fold change vs veh, MARS / RFU, ZNF655 / Fold change vs veh, ZNF655 / RFU, FAHD1 / Fold change vs veh, FAHD1 / RFU, BDP1 / Fold change vs veh, BDP1 / RFU, LRRCC1 / Fold change vs veh, LRRCC1 / RFU, ARID1A / Fold change vs veh, ARID1A / RFU, ZNF146 / Fold change vs veh, ZNF146 / RFU, ZNF330 / Fold change vs veh, ZNF330 / RFU, GPN3 / Fold change vs veh, GPN3 / RFU, C9orf123 / Fold change vs veh, C9orf123 / RFU, N4BP2L2 / Fold change vs veh, N4BP2L2 / RFU, ARFIP1 / Fold change vs veh, ARFIP1 / RFU, FAM179B / Fold change vs veh, FAM179B / RFU, BCL10 / Fold change vs veh, BCL10 / RFU, UHRF1BP1L / Fold change vs veh, UHRF1BP1L / RFU, BET1 / Fold change vs veh, BET1 / RFU, CNOT2 / Fold change vs veh, CNOT2 / RFU, ZNF268 / Fold change vs veh, ZNF268 / Fold change vs veh, ZNF507 / RFU, DGCR2 / Fold change vs veh, DGCR2 / RFU, WDSUB1 / Fold change vs veh, WDSUB1 / Fold change vs veh, HSP90B1 /// MIR3652 / RFU, ADSS / Fold change vs veh, ADSS / RFU, GK / Fold change vs veh, GK / RFU, ZNF148 / Fold change vs veh, ZNF148 / RFU, TAF9 / Fold change vs veh, TAF9 / RFU, SLC1A5 / Fold change vs veh, SLC1A5 / RFU, SLMO2 / Fold change vs veh, SLMO2 / RFU, ABCC4 / Fold change vs veh, ABCC4 / RFU, LOC101060439 /// RAP1B / Fold change vs veh, LOC101060439 /// RAP1B / RFU, RFX7 / Fold change vs veh, RFX7 / RFU, GTPBP10 / Fold change vs veh, GTPBP10 / RFU, CNEP1R1 / Fold change vs veh, CNEP1R1 / RFU, BIVM-ERCC5 /// ERCC5 / Fold change vs veh, BIVM-ERCC5 /// ERCC5 / RFU, ILF3 / Fold change vs veh, ILF3 / RFU 11762660_at / Fold change /veh 11762660_at / RFU VCAN (11757783_s_at) / Fold change /veh VCAN (11757783_s_at) / RFU DDX43 (11728927_at) / Fold change /veh DDX43 (11728927_at) / RFU KRT8 (11758188_x_at) / Fold change /veh KRT8 (11758188_x_at) / RFU NKD1 (11759106_at) / Fold change /veh NKD1 (11759106_at) / RFU SRD5A1 (11742802_a_at) / Fold change /veh SRD5A1 (11742802_a_at) / RFU TPSAB1 /// TPSB2 (11721975_s_at) / Fold change /veh TPSAB1 /// TPSB2 (11721975_s_at) / RFU GSTM3 (11746129_a_at) / Fold change /veh GSTM3 (11746129_a_at) / RFU IL23R (11737362_x_at) / Fold change /veh IL23R (11737362_x_at) / RFU TMEM51 (11727254_a_at) / Fold change /veh TMEM51 (11727254_a_at) / RFU PIWIL2 (11732686_x_at) / Fold change /veh PIWIL2 (11732686_x_at) / RFU ORM1 (11744905_x_at) / Fold change /veh ORM1 (11744905_x_at) / RFU CCDC152 (11743942_at) / Fold change /veh CCDC152 (11743942_at) / RFU ECM1 (11717891_a_at) / Fold change /veh ECM1 (11717891_a_at) / RFU IL23R (11748794_a_at) / Fold change /veh IL23R (11748794_a_at) / RFU TNFAIP8L3 (11732012_x_at) / Fold change /veh TNFAIP8L3 (11732012_x_at) / RFU MBOAT4 (11741988_at) / Fold change /veh MBOAT4 (11741988_at) / RFU 11764193_at / Fold change /veh 11764193_at / RFU TMEM53 (11763286_at) / Fold change /veh TMEM53 (11763286_at) / RFU MAGEB2 (11727129_at) / Fold change /veh MAGEB2 (11727129_at) / RFU TMEM200A (11744735_a_at) / Fold change /veh TMEM200A (11744735_a_at) / RFU CCDC152 (11751479_a_at) / Fold change /veh CCDC152 (11751479_a_at) / RFU FAM211A (11726209_a_at) / Fold change /veh FAM211A (11726209_a_at) / RFU RGS16 (11746705_a_at) / Fold change /veh RGS16 (11746705_a_at) / RFU VCAN (11755009_s_at) / Fold change /veh VCAN (11755009_s_at) / RFU RHOB (11743442_s_at) / Fold change /veh RHOB (11743442_s_at) / RFU RGS16 (11720943_a_at) / Fold change /veh RGS16 (11720943_a_at) / RFU RGS16 (11720944_at) / Fold change /veh RGS16 (11720944_at) / RFU, VPS4B / Fold change vs veh, VPS4B / RFU, CREB1 / Fold change vs veh, CREB1 / RFU, DNAJC13 / Fold change vs veh, DNAJC13 / RFU, GNAQ / Fold change vs veh, GNAQ / RFU, CDK5R1 / Fold change vs veh, CDK5R1 / RFU, ZRANB3 / Fold change vs veh, ZRANB3 / RFU, CUL4A / Fold change vs veh, CUL4A / RFU, CCNY / Fold change vs veh, CCNY / RFU, UFL1 / Fold change vs veh, UFL1 / RFU, COG3 / Fold change vs veh, COG3 / RFU, DIAPH2 / Fold change vs veh, DIAPH2 / RFU, SKA2 / Fold change vs veh, SKA2 / RFU, AFF3 / Fold change vs veh, AFF3 / RFU, LMF1 / Fold change vs veh, LMF1 / RFU, IPO11 / Fold change vs veh, IPO11 / RFU, DFFB / Fold change vs veh, DFFB / RFU, FOXP1 / Fold change vs veh, FOXP1 / RFU, CARD8 / Fold change vs veh, CARD8 / RFU, STRN3 / Fold change vs veh, STRN3 / RFU, ADK / Fold change vs veh, ADK / RFU, RASSF2 / Fold change vs veh, RASSF2 / RFU, WIPF1 / Fold change vs veh, WIPF1 / RFU, LARP1B / Fold change vs veh, LARP1B / RFU, RASA1 / Fold change vs veh, RASA1 / RFU, RB1 / Fold change vs veh, RB1 / RFU, PPFIA1 / Fold change vs veh, PPFIA1 / RFU, MAT2A / Fold change vs veh, MAT2A / RFU, CCT5 / Fold change vs veh, CCT5 / RFU, WDR92 / Fold change vs veh, WDR92 / RFU, CUX1 / Fold change vs veh, CUX1 / RFU, TTC7A / Fold change vs veh, TTC7A / RFU, TMEM135 / Fold change vs veh, TMEM135 / RFU, DEPTOR / Fold change vs veh, DEPTOR / RFU, CPM / Fold change vs veh, CPM / RFU, DNAJB6 / Fold change vs veh, DNAJB6 / RFU, CACNA2D3 / Fold change vs veh, CACNA2D3 / RFU, DTX4 / Fold change vs veh, DTX4 / RFU, TFCP2 / Fold change vs veh, TFCP2 / RFU, GMCL1 /// GMCL1P1 / Fold change vs veh, GMCL1 /// GMCL1P1 / RFU, AEBP2 / Fold change vs veh, AEBP2 / RFU, SNHG1 /// SNORD22 /// SNORD25 /// SNORD26 /// SNORD27 /// SNORD28 /// SNORD29 /// SNORD31 / Fold change vs veh, SNHG1 /// SNORD22 /// SNORD25 /// SNORD26 /// SNORD27 /// SNORD28 /// SNORD29 /// SNORD31 / Fold change (Aza/veh), C12orf56 (ProbeSet 11735607_a_at) / Fold change (ACY-1035/veh), C12orf56 (ProbeSet 11735607_a_at) / Fold change (Aza/veh), FGFR1OP (ProbeSet 11751329_s_at) / Fold change (ACY-1035/veh), FGFR1OP (ProbeSet 11751329_s_at) / Fold change (Aza/veh), VPS36 (ProbeSet 11739960_a_at) / Fold change (ACY-1035/veh), VPS36 (ProbeSet 11739960_a_at) / RFU SYPL1 (11715823_x_at) / Fold change /veh SYPL1 (11715823_x_at) / RFU IGFBP7 (11715501_s_at) / Fold change /veh IGFBP7 (11715501_s_at) / RFU REEP3 (11722064_at) / Fold change /veh REEP3 (11722064_at) / RFU IGLL1 (11728026_x_at) / Fold change /veh IGLL1 (11728026_x_at): dose or concentration left out as unconfirmed
# Conditions: ProbeSet 11724763_s_at; LIST D
smiles,measurement,value
Nc1ncn([C@@H]2O[C@H](CO)[C@@H](O)[C@H]2O)c(=O)n1 [azacitidine],"Fold change vs veh, DEPTOR",0.65
